Like-named read-outs stand apart in the source and are kept apart here.

The target in experiment [1] is T1, MAO-B (Homo sapiens, UniProt P27338).
T1 construct: purchased Sigma-Aldrich
T1 sequence (P27338 1-520): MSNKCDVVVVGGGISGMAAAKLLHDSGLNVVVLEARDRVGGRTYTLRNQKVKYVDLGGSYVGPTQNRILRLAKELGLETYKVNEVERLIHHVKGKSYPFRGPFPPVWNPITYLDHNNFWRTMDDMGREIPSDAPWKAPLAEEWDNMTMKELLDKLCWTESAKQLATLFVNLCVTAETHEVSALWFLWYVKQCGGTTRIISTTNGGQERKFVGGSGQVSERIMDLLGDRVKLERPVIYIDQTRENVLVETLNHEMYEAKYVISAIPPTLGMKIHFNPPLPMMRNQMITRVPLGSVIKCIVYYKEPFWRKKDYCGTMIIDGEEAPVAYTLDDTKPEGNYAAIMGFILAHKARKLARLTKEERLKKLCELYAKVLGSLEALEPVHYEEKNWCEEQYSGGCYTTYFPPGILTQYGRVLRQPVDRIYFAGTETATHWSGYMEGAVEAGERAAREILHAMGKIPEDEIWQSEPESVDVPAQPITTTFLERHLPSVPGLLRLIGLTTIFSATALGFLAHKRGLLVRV
In words: MAO-B inhibition of prior 3-phenylcoumarins (literature data). Conditions: LiPE = pIC50 - QPlogPo/w, literature IC50. The experiment is classed as biochemical.

For experiment [2], the target named is T1, MAO-B. Particulars: cited from earlier work; for pIC50: MAO-B; for IC50: read-out: MAO-B inhibition IC50.
Where [3] appears, read: from literature IC50 ref Serra et al., 2012.
Where [4] appears, read: prior 3-phenylcoumarins ref Serra et al., 2012.
Where [5] appears, read: from literature IC50 ref Matos et al., 2009, 2011a.
[6] abbreviates: prior 3-phenylcoumarins ref Matos et al., 2009, 2011a.
[7] abbreviates: from literature IC50 ref Matos et al., 2010.
Setting [8] is: prior 3-phenylcoumarins ref Matos et al., 2010.
Setting [9] is: from literature IC50 ref Matos et al., 2011a.
Setting [10] is: prior 3-phenylcoumarins ref Matos et al., 2011a.

In experiment [1], `COc1ccc(-c2c(O)c3cc(C)ccc3oc2=O)cc1Cl` [CHEMBL1934676] showed a LiPE of 0.88. Further, in experiment [2] (setting [3]), the pIC50 (usually the negative decadic logarithm of the IC50, by convention in mol/L) was 4.37. Besides, the IC50 (in general, the point on the concentration scale where inhibition reaches its midpoint) in experiment [2] (setting [4]) was 42.7 µM.

In experiment [1], `COc1ccc(-c2cc3cc(C)ccc3oc2=O)cc1` [CHEMBL572233] displayed a LiPE of 4.41. Further, in experiment [2] (setting [5]), the pIC50 is 7.88. Further, the IC50 in experiment [2] (setting [6]) is 0.0131 µM.

Take `COc1cc(-c2cc3cc(C)cc(Br)c3oc2=O)cc(OC)c1OC` [CHEMBL1221982]: the LiPE in experiment [1] is listed as 1.09. Besides, in experiment [2] (setting [7]), the pIC50 was 5.31. In addition, the IC50 in experiment [2] (setting [8]) was 4.89 µM.

In experiment [1], `COc1ccc(-c2c(O)c3cc(Cl)ccc3oc2=O)cc1Cl` [CHEMBL1934677] returned a LiPE of 1.88. Besides, the negative-log IC50 (pIC50) in experiment [2] (setting [3]) is reported as 5.55. The IC50 in experiment [2] (setting [4]) was 2.79 µM.

Take `COc1ccc(-c2cc3cc(C)ccc3oc2=O)cc1Br` [CHEMBL1835231]: the LiPE in experiment [1] is 5.05. In experiment [2] (setting [9]), the pIC50 was 9.13. In addition, the IC50 in experiment [2] (setting [10]) is 0.00074 µM.

In experiment [1], `Cc1ccc(-c2cc3cc(O)ccc3oc2=O)cc1` [CHEMBL1835225] yielded a LiPE of 4.42. The pIC50 in experiment [2] (setting [9]) is given as 7.17. Also, the IC50 in experiment [2] (setting [10]) was 0.0671 µM.

In experiment [1], `COc1cc(OC)c(Br)c(-c2cc3cc(C)ccc3oc2=O)c1` [CHEMBL1835233] showed a LiPE of 0.20. Also, the pIC50 in experiment [2] (setting [9]) is listed as 4.27. In addition, the IC50 in experiment [2] (setting [10]) is 54 µM.

Compound `O=c1oc2ccccc2cc1-c1ccccc1` [CHEMBL510349] displayed a LiPE in experiment [1] of 1.47. In experiment [2] (from literature IC50 ref Viña et al., 2012b), the pIC50 is 4.93. Also, the IC50 in experiment [2] (prior 3-phenylcoumarins ref Viña et al., 2012b) was 11.8 µM.

Turning to `COc1ccc2oc(=O)c(-c3ccc(C)cc3)cc2c1` [CHEMBL1835224], the LiPE in experiment [1] was determined as 5.35. Besides, the pIC50 in experiment [2] (setting [9]) is listed as 8.82. Besides, the IC50 in experiment [2] (setting [10]) was 0.00152 µM.

As for `COc1cc(OC)cc(-c2cc3cc(C)ccc3oc2=O)c1` [CHEMBL1783715], the LiPE in experiment [1] was 4.52. In addition, the pIC50 in experiment [2] (setting [5]) is reported as 8.05. The IC50 in experiment [2] (setting [6]) was 0.00898 µM.

With `COc1ccc(-c2c(O)c3ccccc3oc2=O)cc1` [CHEMBL1917495], the LiPE in experiment [1] stood at 1.49. Besides, the negative logarithm of the IC50 (pIC50) in experiment [2] (setting [3]) was 4.16. Further, the IC50 in experiment [2] (setting [4]) was 69.6 µM.

`COc1ccc(-c2cc3cc(C)ccc3oc2=O)cc1OC` [CHEMBL1835230] had a LiPE in experiment [1] of 5.04. In experiment [2] (setting [9]), the negative logarithm of the IC50 (pIC50) is reported as 8.56. Further, the IC50 in experiment [2] (setting [10]) is 0.00273 µM.

In turn, `COc1cc(OC)cc(-c2cc3cc(C)cc(Br)c3oc2=O)c1` [CHEMBL1221981] registered a LiPE in experiment [1] of 1.02. Also, in experiment [2] (setting [7]), the pIC50 is on record as 5.15. The IC50 in experiment [2] (setting [8]) is 7.12 µM.

On to `Cc1ccc2oc(=O)c(-c3cccc(O)c3)cc2c1` [CHEMBL1835326], for which, in experiment [1], the LiPE is 3.44. The pIC50 in experiment [2] (setting [9]) is on record as 6.19. Besides, in experiment [2] (setting [10]), the IC50 is 0.65 µM.

In turn, `COc1ccc(-c2c(O)c3cc(C)ccc3oc2=O)cc1` [CHEMBL1934673] showed a LiPE in experiment [1] of 1.53. For the same compound, the pIC50 in experiment [2] (setting [3]) was 4.49. Also, in experiment [2] (setting [4]), the IC50 is 32 µM.

Compound `COc1ccc(-c2cc3cc(C)cc(Br)c3oc2=O)cc1` [CHEMBL1221980] gave a LiPE in experiment [1] of 1.42. The pIC50 in experiment [2] (setting [7]) is 5.49. For the same compound, the IC50 in experiment [2] (setting [8]) was 3.23 µM.

The compound `CC(=O)COc1ccc2oc(=O)c(-c3ccc(C)cc3)cc2c1` [CHEMBL1835226] came in with a LiPE in experiment [1] of 2.32. Also, in experiment [2] (setting [9]), the pIC50 is recorded as 5.26. For the same compound, the IC50 in experiment [2] (setting [10]) is 5.52 µM.

Compound `COc1cc(-c2cc3cc(C)ccc3oc2=O)cc(OC)c1OC` [CHEMBL1783716] yielded a LiPE in experiment [1] of 3.18. The pIC50 in experiment [2] (setting [5]) is 6.79. In experiment [2] (setting [6]), the IC50 is 0.161 µM.

`COc1cc(-c2cc3cc(C)ccc3oc2=O)ccc1Br` [CHEMBL1835232] showed a LiPE in experiment [1] of 4.41. For the same compound, in experiment [2] (setting [9]), the pIC50 is given as 8.49. In addition, in experiment [2] (setting [10]), the 50% inhibitory concentration (IC50) was 0.00325 µM.

On to `COc1cc(Br)cc2cc(-c3ccccc3)c(=O)oc12` [CHEMBL1777814], for which the LiPE in experiment [1] is recorded as 3.35. Also, the pIC50 in experiment [2] (from literature IC50 ref Matos et al., 2011b) is given as 7.08. In addition, the IC50 in experiment [2] (prior 3-phenylcoumarins ref Matos et al., 2011b) was 0.0835 µM.

The values above are taken from paper PMC5840146, “Structure-Activity Relationship Analysis of 3-Phenylcoumarin-Based Monoamine Oxidase B Inhibitors” (Frontiers in Chemistry, 2018).
